# From ChEMBL document CHEMBL1149522, “Synthesis of 3H-spiro[benzofuran-2,1'-cyclohexane] derivatives from naturally occurring filifolinol and their classical complement pathway inhibitory activity” (Bioorg Med Chem Lett, 2006)
# Values joined by “and” are separate entries in the source; they are usually repeats but may differ in a detail not shown here. Identical values can stand only once.
# Tested on: RBCs
# Experiment: Inhibition of complement-induced hemolysis in sensitized sheep erythrocytes at 253 ug/ml
# Format: functional
# Details: Ovis aries, Erythrocyte
row,Compound,inhibition at 253 µg/mL [%]
1,CC(=O)c1cc2c(cc1O)C[C@@]1(O2)[C@@H](C)CC[C@@H](O)C1(C)C,17

# Tested on: RBCs
# Experiment: Inhibition of complement-induced hemolysis in sensitized sheep erythrocytes
# Format: functional, cell-based
# Details: Ovis aries, Erythrocyte
row,Compound,IC50
1,COc1ccc(C(=O)[O-])c2c1CC1(CCCCC1)O2.[Na+],1.3 mM and 341 µg/mL
2,C[C@H]1CC[C@@H](O)C(C)(C)[C@@]12Cc1cc(O)ccc1O2,455 µM and 260 µg/mL
3,C[C@H]1CC[C@@H](O)C(C)(C)[C@@]12Cc1cc(C(=O)[O-])cc(Br)c1O2.[Na+],950 µM and 350 µg/mL
4,C[C@H]1CC[C@@H](O)C(C)(C)[C@@]12Cc1cc(C(=O)[O-])cc(C#N)c1O2.[Na+],1.32 mM and 415 µg/mL
5,C[C@@H]1CCC2C(C)(C)[C@H](O)[C@H](O)C[C@]2(C)[C@@]12Cc1c(O)cc(C(=O)[O-])c(C=O)c1O2.[Na+] (stereo partly specified),570 µM and 238 µg/mL
6,C[C@H]1CC[C@@H](O)C(C)(C)[C@@]12Cc1cc(C(=O)[O-])ccc1O2.[Na+],2 mM and 580 µg/mL
7,CC(=O)c1c(O)ccc2c1C[C@@]1(O2)[C@@H](C)CC[C@@H](O)C1(C)C,1.07 mM and 320 µg/mL
8,COc1cc(C(=O)[O-])cc2c1CC1(CCCCC1)O2.[Na+],820 µM and 214 µg/mL
9,COc1cc(C(=O)[O-])c(C=O)c2c1CC1(CCCCC1)O2.[Na+],160 µM and 44 µg/mL
10,C[C@]1(O)CC[C@@H]([C@]2(C)Cc3c(O)ccc(C(=O)[O-])c3O2)C[C@H]1O.[Na+],1.6 mM and 515 µg/mL
